According to patent publication EP0066373A1, “Beta-lactam derivatives, a process for their preparation and compositions containing them” (BEECHAM GROUP PLC, priority 1981, dated 1982):

How the values were obtained:
Type in all cases: cell-based
P. mirabilis C 977 = assay: Antibacterial activity (MIC); conditions: Proteus mirabilis, C977, Agar
E. coli JT 4 = assay: Antibacterial activity (MIC); conditions: Escherichia coli, JT4, Agar
E. coli ESS = assay: Antibacterial activity (MIC); conditions: Escherichia coli, Agar
[1] = test system: Ps. aeurginosa NCTC 10662; assay: Antibacterial activity (MIC)
S. marcescens US 32 = assay: Antibacterial activity (MIC); conditions: Serratia marcescens, US32, Agar
E. coli NCTC 10418 = assay: Antibacterial activity (MIC); conditions: Escherichia coli
[2] = test system: Ps. aeruginosa NCTC 10662 10^-2; assay: Antibacterial activity (MIC), 10^-2; conditions: Pseudomonas aeruginosa
E. cloacae N1 = assay: Antibacterial activity (MIC); conditions: Enterobacter cloacae, Agar
E. coli JT 425 = assay: Antibacterial activity (MIC); conditions: Escherichia coli, JT425, Agar
[3] = test system: Ps. aeruginosa Dalgleish 10^-2; assay: Antibacterial activity (MIC), 10^-2; conditions: Pseudomonas aeruginosa, Agar
K. aerogenes A = assay: Antibacterial activity (MIC); conditions: Klebsiella aerogenes

| Structure (SMILES) | MIC (P. mirabilis C 977) [µg/mL] | MIC (E. coli JT 4) [µg/mL] | MIC (E. coli ESS) [µg/mL] | MIC ([1]; Agar) [µg/mL] | MIC ([1]; Broth) [µg/mL] | MIC (S. marcescens US 32) [µg/mL] | MIC (E. coli NCTC 10418; NCTC10418, Agar) [µg/mL] | MIC (E. coli NCTC 10418; NCTC10418, Broth) [µg/mL] | MIC ([2]; NCTC10662, Agar) [µg/mL] | MIC ([2]; NCTC10662, Broth) [µg/mL] | MIC (E. cloacae N1) [µg/mL] | MIC (E. coli JT 425) [µg/mL] | MIC [3] [µg/mL] | MIC (K. aerogenes A; Agar) [µg/mL] | MIC (K. aerogenes A; Broth) [µg/mL] |
| --- | --- | --- | --- | --- | --- | --- | --- | --- | --- | --- | --- | --- | --- | --- | --- |
| CO[C@@]1(NC(=O)C(c2ccc(OC(C)=O)c(OC(C)=O)c2)S(=O)(=O)O)C(=O)N2[C@@H](C(=O)O)C(C)(C)S[C@@H]21 (stereo partly drawn) [Example 3, Disodium 6,β-[R,S-2-(3,4-diacetoxyphenyl)-2-sulphoacetamido]-6,a-methoxypenicillanate] | 25 | 2.5 | 0.2 | 2.5 | 5 | 25 | 2.5 | 5 | 2.5 | 5 | 50 | 2.5 | 2.5 | 10 | 25 |
| CO[C@@]1(NC(=O)[C@@H](c2ccc(O)c(O)c2)S(=O)(=O)O)C(=O)N2[C@@H](C(=O)O)C(C)(C)S[C@@H]21 [Example 9, Disodium 6,β-[R-2-(3,4-dihydroxyphenyl)-2-sulphoacetamido] -6,a-methoxypenicillanate] | 25 | 2.5 | 0.1 | 2.5 |  | 25 | 2.5 |  | 0.5 |  | 50 | 1 | 0.5 | 5 |  |
| CO[C@@]1(NC(=O)C(c2ccc(O)c(O)c2)S(=O)(=O)O)C(=O)N2[C@@H](C(=O)O)C(C)(C)S[C@@H]21 (stereo partly drawn) [Example 4, Disodium 6,β-[R,S-2-(3,4-dihydroxyphenyl)-2-sulphoacetamido]-6,a-methoxypenicillanate] | 25 | 5 | 0.5 | 2.5 |  | 25 | 5 |  | 5 |  | 50 | 5 | 2.5 | 5 |  |
| CO[C@@]1(NC(=O)[C@@H](c2ccc(OC(C)=O)c(OC(C)=O)c2)S(=O)(=O)O)C(=O)N2[C@@H](C(=O)O)C(C)(C)S[C@@H]21 [Example 8, Disodium 6,β-[R-2-(3,4-diacetoxyphenyl)-2-sulphoacetamido]-6,a-methoxypenicillanate] | 10 | 2.5 | 0.2 | 2.5 | 1 | 25 | 2.5 | 5 | 0.5 | 0.5 | 25 | 1 | 0.5 | 5 | 10 |
